Holding throughout (type): in vivo
For experiment [1], the system named is CYPERUS SEROTINUS, ROTTB. The experiment is described as follows: Preemergence weed control under flooded paddy conditions, CYPSE (Flatsedge). To be noted: preemergence weeds, rated three to four weeks after treatment. A digest of the protocol: (§1)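 Flooded paddy preemergence test: seeds/propagating organs in top 0.5 cm silt loam, water held 1.5-3 cm above soil. Dosing by pipette into flood water, aqueous/acetone 50/50 v/v, ~0.5, 0.25, 0.125, 0.063 kg/ha a.i. Greenhouse; read at 3-4 wk, 0-9 visual scale.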

Experiment [2] concerns ORYZA SATIVA, L. TEBONNET
The experiment is described as follows: Postemergence herbicidal evaluation, ORYSAT (Rice, Tebonnet). Also on record: key: 0-9 visual rating scale vs untreated control. The procedure: In the tests, seedling plants are grown in jiffy flats for about two weeks. The test compounds are dispersed in 50/50 acetone/water mixtures containing 0.5% TWEEN®20, a polyoxyethylene sorbitan monolaurate surfactant of Atlas Chemical Industries, in sufficient quantities to provide the equivalent of about 0.125 kg to 0.500 kg per hectare of active compound when applied to the plants through a spray nozzle operating at 40 psi for a predetermined time. After spraying, the plants are placed on greenhouse benches and are cared for in the usual manner, commensurate with conventional greenhouse practices. From four to five weeks after treatment, the seedling plants are examined and rated according to the rating system set forth below. Where more than one test is involved for a given compound, the data are averaged.
Plant species employed in these evaluations are reported by header abbreviation, common name and scientific name.
Results of herbicide evaluation are expressed on a rating scale (0-9). The scale is based upon a visual observation of plant stand, vigor, malformation, size, chlorosis and overall plant appearance as compared with a control.

The test system of experiment [3] is GLYCINE MAX(L) MERR. CV. WILLIAMS
The experiment is described as follows: Preemergence herbicidal evaluation, GLXMAW (Soybean, Williams). The conditions noted are these: rated four to five weeks after treatment. A digest of the protocol: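 Seeds mixed with potting soil were planted on about one inch of soil in cups, then sprayed with aqueous acetone solution of test compound at about 0.125 to 0.50 kg per hectare. Plants grown under greenhouse conditions; visual rating on a 0-9 scale versus untreated control at 4-5 weeks.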

A further experiment deals with CYPERUS IRIA. The experiment is described as follows: Preemergence weed control under flooded paddy conditions, CYPIR (Rice Flatsedge). The conditions noted are these: for Herbicidal effect rating, CYPIR: preemergence, 3-4 weeks after treatment; for CYPIR: pre-weed. A digest of the protocol:
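Seeds or propagating organs of rice flatsedge were planted in the top 0.5 cm of silt loam soil in 32 oz. plastic containers, 10.5 cm across and without drainage holes. Water was kept 1.5 to 3 cm above the soil throughout. Treated containers were kept on greenhouse benches, and herbicidal effect was visually rated on a 0-9 scale against a control.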

For the next experiment, the system named is […], PRESL. Kind of experiment: Preemergence weed control under flooded paddy conditions, MOOVA (Monochoria). To be noted: for Herbicidal effect rating, MOOVA: preemergence, 3-4 weeks after treatment; for MOOVA: pre-weed. In outline:
as §1

For a further experiment, the system named is CASSIA OBTUSIFOLIA, L. Kind of experiment: Postemergence herbicidal evaluation, CASOB (Sicklepod). Also on record: key to CASOB rating / Herbicidal effect rating, CASOB / CASOB: 0-9 visual rating scale vs untreated control. In outline: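 Greenhouse postemergence test. Seedlings (~2 wk) sprayed at 40 psi; dose ~0.125–0.500 kg/ha in acetone/water (1:1), 0.5% TWEEN 20. Scored 0–9 at 4–5 wk.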

Experiment [4] has as its system GLYCINE MAX(L) MERR. CV. WILLIAMS
The experiment is described as follows: Postemergence herbicidal evaluation, GLXMAW (Soybean, Williams). Also on record: key to GLXMAW rating / Herbicidal effect rating, GLXMAW / GLXMAW: 0-9 visual rating scale vs untreated control. A digest of the protocol: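 Soybean seedlings (Williams) were raised in jiffy flats for roughly two weeks, then sprayed postemergence through a nozzle at 40 psi with test compound dispersed in 50/50 acetone/water containing 0.5% TWEEN®20. Treated plants were kept on greenhouse benches under normal care and visually rated on a 0-9 scale four to five weeks later.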

Regarding `COC(=O)Cn1c(=O)[nH]c(=O)n(-c2cc(Oc3ccc(C(F)(F)F)cc3Cl)ccc2[N+](=O)[O-])c1=O` [Compound 8, Methyl 3-{5-[(2-chloro-α,α,α-trifluoro-p-tolyl)oxy]-2-nitrophenyl}tetrahydro-2,4,6-trioxo-s-triazine-1(2H)-acetate], the CYPSE herbicidal rating in experiment [1] (Rate 0.063 kg/ha), in experiment [1] (Rate 0.125 kg/ha) and in experiment [1] (Rate 0.250 kg/ha) was 0.0 in each case.

With `COC(=O)Cn1c(=O)n(C)c(=O)n(-c2cc(Oc3ccc(C(F)(F)F)cc3Cl)ccc2Cl)c1=O` [Compound 39, Methyl 3-{[2-chloro-5-(2-chloro-α,α,α-trifluoro-p-tolyl)oxy]phenyl}tetrahydro-5-methyl-2,4,6-trioxo-s-triazine-1(2H)-acetate], the ORYSAT worked out at 2.3 in experiment [2] (Rate 0.016 kg/ha); 3.3 in experiment [2] (Rate 0.032 kg/ha); 4.8 in experiment [2] (Rate 0.063 kg/ha); 4.3 in experiment [2] (Rate 0.125 kg/ha); 4.8 in experiment [2] (Rate 0.250 kg/ha); 4.5 in experiment [2] (Rate 0.500 kg/ha). Further, the GLXMAW herbicidal rating in experiment [3] (Rate 0.125 kg/ha), in experiment [3] (Rate 0.250 kg/ha) and in experiment [3] (Rate 0.500 kg/ha) was 2.0 throughout. In addition, the “Herbicidal effect rating, CYPIR” value in the experiment with CYPERUS IRIA (0.063 kg/ha), in the experiment on CYPERUS IRIA (0.125 kg/ha), with CYPERUS IRIA (0.250 kg/ha) and in the experiment on CYPERUS IRIA (0.500 kg/ha) was 9.0 throughout. Besides, the CYPIR with CYPERUS IRIA (Rate 0.031 kg/ha), in the experiment with CYPERUS IRIA (Rate 0.063 kg/ha), with CYPERUS IRIA (Rate 0.125 kg/ha) and in the experiment with CYPERUS IRIA (Rate 0.250 kg/ha) was 9.0 in each case. Besides, the “Herbicidal effect rating, MOOVA” value in experiment […], PRESL. (0.063 kg/ha) stood at 9.0; in experiment […], PRESL. (0.125 kg/ha), 9.0; in experiment […], PRESL. (0.250 kg/ha), 9.0; in experiment […], PRESL. (0.500 kg/ha), 9.0. Besides, the MOOVA in experiment […], PRESL. (Rate 0.031 kg/ha) was 9.0; in experiment […], PRESL. (Rate 0.063 kg/ha), 9.0; in experiment […], PRESL. (Rate 0.125 kg/ha), 9.0; in experiment […], PRESL. (Rate 0.250 kg/ha) it was 9.0. The CASOB with CASSIA OBTUSIFOLIA, L. (Rate 0.016 kg/ha) amounted to 6.0; in the experiment with CASSIA OBTUSIFOLIA, L. (Rate 0.032 kg/ha), 9.0; in the experiment with CASSIA OBTUSIFOLIA, L. (Rate 0.063 kg/ha), 9.0; in the experiment on CASSIA OBTUSIFOLIA, L. (Rate 0.125 kg/ha), 9.0; with CASSIA OBTUSIFOLIA, L. (Rate 0.250 kg/ha), 9.0; with CASSIA OBTUSIFOLIA, L. (Rate 0.500 kg/ha), 9.0. In addition, the CASOB rating was found to be 9.0 in the experiment on CASSIA OBTUSIFOLIA, L. (Rate 0.125 kg/ha); 9.0 in the experiment with CASSIA OBTUSIFOLIA, L. (Rate 0.250 kg/ha); 9.0 in the experiment on CASSIA OBTUSIFOLIA, L. (Rate 0.500 kg/ha). Moreover, the GLXMAW stood at 3.8 in experiment [4] (Rate 0.016 kg/ha); 4.5 in experiment [4] (Rate 0.032 kg/ha); 5.3 in experiment [4] (Rate 0.063 kg/ha); 5.5 in experiment [4] (Rate 0.125 kg/ha); 6.3 in experiment [4] (Rate 0.250 kg/ha); 7.0 in experiment [4] (Rate 0.500 kg/ha).

These data come from EP0745595A1, “3-(3-Aryloxyphenyl)-1-(substituted methyl)-s-triazine-2,4,6-oxo or thiotrione herbicidal agents” (American Cyanamid Company, priority 1995, dated 1996).
